In patent US20250115669A1, “FGFR1/KLB Targeting Agonistic Antigen-Binding Proteins and Conjugates Thereof with GLP-1R Agonistic Peptides” (SANOFI, priority 2020, published 2025):
Where two headings read alike, the source gives them in different places. Peptide text beside a SMILES is read from it.

Legend:
Type in all cases: cell-based
human GLP-1 receptor = target: T1, human GLP-1 receptor (Homo sapiens, UniProt P43220); assay: HTRF cAMP assay in HEK-293 cells expressing human GLP-1 receptor
T1 construct: expressed in transfected cells; host or cells: PSC-HEK-293
T1 sequence (P43220 24-463): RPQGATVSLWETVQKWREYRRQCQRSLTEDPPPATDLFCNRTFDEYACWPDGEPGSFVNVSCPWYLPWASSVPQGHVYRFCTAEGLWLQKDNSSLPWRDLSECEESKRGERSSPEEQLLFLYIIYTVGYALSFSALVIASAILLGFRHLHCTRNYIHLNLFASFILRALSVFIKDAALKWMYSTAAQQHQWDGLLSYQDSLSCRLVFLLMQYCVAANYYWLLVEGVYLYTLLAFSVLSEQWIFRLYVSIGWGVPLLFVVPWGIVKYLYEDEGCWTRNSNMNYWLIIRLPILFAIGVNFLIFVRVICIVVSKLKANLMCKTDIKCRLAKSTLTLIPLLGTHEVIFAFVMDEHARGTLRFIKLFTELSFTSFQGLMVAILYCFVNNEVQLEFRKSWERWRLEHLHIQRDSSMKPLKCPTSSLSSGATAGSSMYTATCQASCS

[1] = target: T2, human glucagon (GCG) receptor (Homo sapiens, UniProt P47871); assay: HTRF cAMP assay in HEK-293 cells expressing human glucagon receptor
T2 construct: expressed in transfected cells; host or cells: PSC-HEK-293
T2 sequence (P47871 26-477): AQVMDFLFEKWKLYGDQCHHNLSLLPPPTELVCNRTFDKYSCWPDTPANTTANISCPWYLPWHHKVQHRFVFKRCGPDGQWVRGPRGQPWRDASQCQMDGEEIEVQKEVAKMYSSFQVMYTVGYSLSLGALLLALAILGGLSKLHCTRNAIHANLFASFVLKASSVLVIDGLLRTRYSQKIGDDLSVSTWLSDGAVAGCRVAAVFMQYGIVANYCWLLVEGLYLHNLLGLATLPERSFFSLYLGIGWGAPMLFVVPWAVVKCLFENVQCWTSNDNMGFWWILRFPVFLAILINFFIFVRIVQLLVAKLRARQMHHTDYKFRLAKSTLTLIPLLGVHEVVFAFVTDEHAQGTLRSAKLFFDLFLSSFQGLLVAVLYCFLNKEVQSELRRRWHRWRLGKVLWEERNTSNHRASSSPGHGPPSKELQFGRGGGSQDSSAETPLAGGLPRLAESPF

human GIP receptor = target: T3, human GIP receptor (Homo sapiens, UniProt P48546); assay: HTRF cAMP assay in HEK-293 cells expressing human GIP receptor
T3 construct: expressed in transfected cells; host or cells: PSC-HEK-293
T3 sequence (P48546 22-466): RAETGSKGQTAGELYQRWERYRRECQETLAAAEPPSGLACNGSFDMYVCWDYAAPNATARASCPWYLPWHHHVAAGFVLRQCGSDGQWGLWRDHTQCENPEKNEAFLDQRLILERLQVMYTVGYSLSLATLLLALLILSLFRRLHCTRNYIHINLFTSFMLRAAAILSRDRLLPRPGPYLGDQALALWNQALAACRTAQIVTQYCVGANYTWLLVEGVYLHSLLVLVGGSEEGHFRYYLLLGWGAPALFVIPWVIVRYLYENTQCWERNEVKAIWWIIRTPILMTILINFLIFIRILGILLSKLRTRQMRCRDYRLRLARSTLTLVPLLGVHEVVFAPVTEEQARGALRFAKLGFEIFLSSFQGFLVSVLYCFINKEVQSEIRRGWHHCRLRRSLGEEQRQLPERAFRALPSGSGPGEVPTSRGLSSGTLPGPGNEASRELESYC

[2] = target: T4, FGFR1c and co-receptor beta-Klotho (KLB) (Homo sapiens, UniProt P11362+Q86Z14); assay: Luciferase reporter gene assay (iLite FGF21 Assay Ready Cells), FGF21-like signaling; conditions: monovalent Fab versus bivalent antibody
T4 construct: host or cells: iLite FGF21 Assay Ready Cells (HEK293)
T4 sequence (Q86Z14 53-1044 limits assumed): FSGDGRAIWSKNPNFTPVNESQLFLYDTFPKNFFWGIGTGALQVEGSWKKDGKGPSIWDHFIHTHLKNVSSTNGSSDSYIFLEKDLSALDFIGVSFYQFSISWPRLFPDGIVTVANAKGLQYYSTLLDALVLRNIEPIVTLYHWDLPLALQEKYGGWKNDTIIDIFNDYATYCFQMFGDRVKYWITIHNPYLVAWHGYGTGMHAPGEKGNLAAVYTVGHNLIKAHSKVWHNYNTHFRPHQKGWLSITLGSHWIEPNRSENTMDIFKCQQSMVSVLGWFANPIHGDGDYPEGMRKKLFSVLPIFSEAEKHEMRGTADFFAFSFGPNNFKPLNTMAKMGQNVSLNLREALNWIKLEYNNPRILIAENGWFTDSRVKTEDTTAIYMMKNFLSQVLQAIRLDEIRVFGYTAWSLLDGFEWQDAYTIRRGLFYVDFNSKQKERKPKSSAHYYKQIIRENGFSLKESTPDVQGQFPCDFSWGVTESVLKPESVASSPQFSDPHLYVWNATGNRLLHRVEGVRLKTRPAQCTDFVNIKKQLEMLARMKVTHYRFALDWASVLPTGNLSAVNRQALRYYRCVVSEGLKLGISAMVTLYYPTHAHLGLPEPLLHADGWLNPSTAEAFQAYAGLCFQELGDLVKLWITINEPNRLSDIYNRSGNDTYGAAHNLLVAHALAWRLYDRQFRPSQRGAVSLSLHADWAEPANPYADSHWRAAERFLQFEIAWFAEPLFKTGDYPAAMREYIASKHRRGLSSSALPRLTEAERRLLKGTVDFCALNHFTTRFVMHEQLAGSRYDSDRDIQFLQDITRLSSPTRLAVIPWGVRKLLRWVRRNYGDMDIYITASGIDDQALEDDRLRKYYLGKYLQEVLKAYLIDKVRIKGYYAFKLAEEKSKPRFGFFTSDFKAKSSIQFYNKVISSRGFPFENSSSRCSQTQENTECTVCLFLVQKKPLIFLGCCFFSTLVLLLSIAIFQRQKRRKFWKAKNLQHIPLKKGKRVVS
T4 sequence (P11362 22-820 isoform P11362-2 limits assumed): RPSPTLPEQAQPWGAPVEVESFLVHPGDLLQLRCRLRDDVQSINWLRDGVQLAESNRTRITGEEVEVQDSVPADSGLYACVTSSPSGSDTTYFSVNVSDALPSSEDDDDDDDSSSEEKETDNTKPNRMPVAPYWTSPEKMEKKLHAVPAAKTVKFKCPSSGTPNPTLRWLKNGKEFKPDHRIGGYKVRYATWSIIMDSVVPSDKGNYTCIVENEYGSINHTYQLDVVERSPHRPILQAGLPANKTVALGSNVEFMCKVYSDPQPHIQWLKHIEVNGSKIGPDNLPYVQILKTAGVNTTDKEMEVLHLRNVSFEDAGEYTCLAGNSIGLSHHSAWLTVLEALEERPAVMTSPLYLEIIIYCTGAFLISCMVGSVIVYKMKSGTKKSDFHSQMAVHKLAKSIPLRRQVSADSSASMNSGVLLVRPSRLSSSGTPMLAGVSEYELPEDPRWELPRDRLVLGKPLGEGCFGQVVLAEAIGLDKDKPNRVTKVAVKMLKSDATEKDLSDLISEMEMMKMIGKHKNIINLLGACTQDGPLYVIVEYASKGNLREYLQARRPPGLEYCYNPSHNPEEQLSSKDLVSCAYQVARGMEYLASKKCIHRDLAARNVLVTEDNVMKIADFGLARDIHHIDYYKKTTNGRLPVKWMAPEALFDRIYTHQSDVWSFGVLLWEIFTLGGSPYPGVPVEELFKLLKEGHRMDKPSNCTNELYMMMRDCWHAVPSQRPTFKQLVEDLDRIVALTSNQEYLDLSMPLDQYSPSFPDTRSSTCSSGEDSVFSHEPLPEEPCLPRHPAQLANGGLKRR

[3] = HEK-293 cells, read-out: HTRF cAMP EC50 Human GLP-1R
[4] = HEK-293 cells, read-out: HTRF cAMP EC50 Human GCGR
[5] = HEK-293 cells, read-out: HTRF cAMP EC50 Human GIPR

EC50 (human GLP-1 receptor; [3]) [nM]	EC50 [1, 4] [nM]	EC50 (human GIP receptor; [5]) [nM]	FGF21-like activity in Luciferase gene reporter assay (in words) [2]	Molecule	EC50 (human GLP-1 receptor) [nM]	EC50 [1] [nM]	EC50 (human GIP receptor) [nM]
0.0524	> 10	> 10		CC[C@H](C)[C@H](NC(=O)[C@H](Cc1ccccc1)NC(=O)[C@H](CC(C)C)NC(=O)[C@H](CCC(N)=O)NC(=O)[C@@H](NC(=O)[C@H](C)NC(=O)[C@H](CCC(=O)O)NC(=O)[C@H](CCC(=O)O)NC(=O)[C@H](CCC(=O)O)NC(=O)[C@H](CC(C)C)NC(=O)[C@H](CCC(N)=O)NC(=O)[C@H](CCCCN)NC(=O)[C@H](CO)NC(=O)[C@H](CC(C)C)NC(=O)[C@H](CC(=O)O)NC(=O)[C@H](CO)NC(=O)[C@@H](NC(=O)[C@H](Cc1ccccc1)NC(=O)[C@@H](NC(=O)CNC(=O)[C@H](CCC(=O)O)NC(=O)CNC(=O)[C@H](Cc1c[nH]cn1)NC(=O)CN)[C@@H](C)O)[C@@H](C)O)C(C)C)C(=O)N[C@@H](CCC(=O)O)C(=O)N[C@@H](Cc1c[nH]c2ccccc12)C(=O)N[C@@H](CC(C)C)C(=O)N[C@@H](CCCCN)C(=O)N[C@@H](C)C(=O)NCC(=O)NCC(=O)N1CCC[C@H]1C(=O)N[C@@H](CO)C(=O)N[C@@H](CO)C(=O)NCC(=O)N[C@@H](CCCCN)C(=O)N1CCC[C@H]1C(=O)N1CCC[C@H]1C(=O)N1CCC[C@H]1C(=O)N[C@@H](CCCCN)C(N)=O [Ab P038] (H-GHGEGTFTSDLSKQLEEEAVQLFIEWLKAGGPSSGKPPPK-NH2; N-terminus assumed)			
0.002	3.9	2.48		CC[C@H](C)[C@H](NC(=O)[C@H](Cc1ccccc1)NC(=O)[C@H](CC(C)C)NC(=O)[C@H](CCCNC(=N)N)NC(=O)[C@H](CCC(N)=O)NC(=O)[C@H](CC(C)C)NC(=O)[C@H](CCCNC(=N)N)NC(=O)[C@H](CCCCN)NC(=O)[C@H](CCC(=O)O)NC(=O)[C@H](CC(C)C)NC(=O)[C@H](CCC(N)=O)NC(=O)[C@H](CCCCN)NC(=O)[C@H](CO)NC(=O)[C@H](CC(C)C)NC(=O)[C@H](CC(=O)O)NC(=O)[C@H](CO)NC(=O)[C@@H](NC(=O)[C@H](Cc1ccccc1)NC(=O)[C@@H](NC(=O)CNC(=O)[C@H](CCC(=O)O)NC(=O)CNC(=O)[C@@H](N)Cc1c[nH]cn1)[C@@H](C)O)[C@@H](C)O)C(=O)N[C@@H](Cc1ccc(O)cc1)C(=O)N[C@@H](Cc1c[nH]c2ccccc12)C(=O)N[C@@H](CC(C)C)C(=O)N[C@@H](CCCCN)C(=O)N[C@@H](C)C(=O)NCC(=O)NCC(=O)N[C@@H](Cc1c[nH]cn1)C(=O)N[C@@H](CO)C(=O)N[C@@H](CO)C(=O)NCC(=O)N[C@@H](CCCCN)C(=O)N1CCC[C@H]1C(=O)N1CCC[C@H]1C(=O)N1CCC[C@H]1C(=O)N[C@@H](CCCCN)C(N)=O [Ab P026] (H-HGEGTFTSDLSKQLEKRLQRLFIYWLKAGGHSSGKPPPK-NH2; N-terminus assumed)			
				CC[C@H](C)[C@H](NC(=O)[C@H](Cc1ccccc1)NC(=O)[C@H](CC(C)C)NC(=O)[C@H](CCCNC(=N)N)NC(=O)[C@@H](NC(=O)[C@H](C)NC(=O)[C@H](CCC(=O)O)NC(=O)[C@H](CCC(=O)O)NC(=O)[C@H](CCC(=O)O)NC(=O)[C@H](CC(C)C)NC(=O)[C@H](CCC(N)=O)NC(=O)[C@H](CCCCN)NC(=O)[C@H](CO)NC(=O)[C@H](CC(C)C)NC(=O)[C@H](CC(=O)O)NC(=O)[C@H](CO)NC(=O)[C@@H](NC(=O)[C@H](Cc1ccccc1)NC(=O)[C@@H](NC(=O)CNC(=O)[C@H](CCC(=O)O)NC(=O)CNC(=O)[C@H](Cc1c[nH]cn1)NC(=O)CN)[C@@H](C)O)[C@@H](C)O)C(C)C)C(=O)N[C@@H](CCC(=O)O)C(=O)N[C@@H](Cc1c[nH]c2ccccc12)C(=O)N[C@@H](CC(C)C)C(=O)N[C@@H](CCCCN)C(=O)N[C@@H](C)C(=O)NCC(=O)NCC(=O)N1CCC[C@H]1C(=O)N[C@@H](CCCCN)C(=O)N[C@@H](CCCCN)C(=O)N[C@H](C(=O)N[C@@H](CCCNC(=N)N)C(=O)N[C@@H](Cc1ccc(O)cc1)C(=O)N[C@@H](CO)C(N)=O)[C@@H](C)CC [Ab P013] (H-GHGEGTFTSDLSKQLEEEAVRLFIEWLKAGGPKKIRYS-NH2)	0.0099	> 10	> 10
			inactive	16H7-Fab: monovalent Fab fragment (antigen-binding fragment) of 16H7 [Ab 16H7-Fab, reference compound]			
				CC[C@H](C)[C@H](NC(=O)[C@H](Cc1ccccc1)NC(=O)[C@H](CC(C)C)NC(=O)[C@H](CCCNC(=N)N)NC(=O)[C@@H](NC(=O)[C@H](C)NC(=O)[C@H](CCC(=O)O)NC(=O)[C@H](CCC(=O)O)NC(=O)[C@H](CCC(=O)O)NC(=O)[C@H](CC(C)C)NC(=O)[C@H](CCC(N)=O)NC(=O)[C@H](CCCCN)NC(=O)[C@H](CO)NC(=O)[C@H](CC(C)C)NC(=O)[C@H](CC(=O)O)NC(=O)[C@H](CO)NC(=O)[C@@H](NC(=O)[C@H](Cc1ccccc1)NC(=O)[C@@H](NC(=O)CNC(=O)[C@H](CCC(=O)O)NC(=O)CNC(=O)[C@H](Cc1c[nH]cn1)NC(=O)CN)[C@@H](C)O)[C@@H](C)O)C(C)C)C(=O)N[C@@H](CCC(=O)O)C(=O)N[C@@H](Cc1c[nH]c2ccccc12)C(=O)N[C@@H](CC(C)C)C(=O)N[C@@H](CCCCN)C(=O)N[C@@H](C)C(=O)NCC(=O)NCC(=O)N1CCC[C@H]1C(=O)N[C@@H](CO)C(=O)N[C@@H](CO)C(=O)NCC(=O)N[C@@H](C)C(=O)N1CCC[C@H]1C(=O)N1CCC[C@H]1C(=O)N1CCC[C@H]1C(=O)N[C@@H](CO)C(N)=O [Ab P017] (H-GHGEGTFTSDLSKQLEEEAVRLFIEWLKAGGPSSGAPPPS-NH2)	0.0085	> 10	> 10
0.0156	> 10	> 10		CC[C@H](C)[C@H](NC(=O)[C@H](Cc1ccccc1)NC(=O)[C@H](CC(C)C)NC(=O)[C@H](CCC(N)=O)NC(=O)[C@@H](NC(=O)[C@H](C)NC(=O)[C@H](CCC(=O)O)NC(=O)[C@H](CCC(=O)O)NC(=O)[C@H](CCC(=O)O)NC(=O)[C@H](CC(C)C)NC(=O)[C@H](CCC(N)=O)NC(=O)[C@H](CCCCN)NC(=O)[C@H](CO)NC(=O)[C@H](CC(C)C)NC(=O)[C@H](CC(=O)O)NC(=O)[C@H](CO)NC(=O)[C@@H](NC(=O)[C@H](Cc1ccccc1)NC(=O)[C@@H](NC(=O)CNC(=O)[C@H](CCC(=O)O)NC(=O)CNC(=O)[C@H](Cc1c[nH]cn1)NC(=O)CN)[C@@H](C)O)[C@@H](C)O)C(C)C)C(=O)N[C@@H](CCC(=O)O)C(=O)N[C@@H](Cc1c[nH]c2ccccc12)C(=O)N[C@@H](CC(C)C)C(=O)N[C@@H](CCCCN)C(=O)N[C@@H](C)C(=O)NCC(=O)NCC(=O)N1CCC[C@H]1C(=O)N[C@@H](CCCCN)C(=O)N[C@@H](CCCCN)C(=O)N[C@H](C(=O)N[C@@H](CCCNC(=N)N)C(=O)N[C@@H](Cc1ccc(O)cc1)C(=O)N[C@@H](CO)C(N)=O)[C@@H](C)CC [Ab P015] (H-GHGEGTFTSDLSKQLEEEAVQLFIEWLKAGGPKKIRYS-NH2; N-terminus assumed)			
0.158	> 10	> 10		CC[C@H](C)[C@H](NC(=O)[C@H](Cc1ccccc1)NC(=O)[C@H](CC(C)C)NC(=O)[C@H](Cc1c[nH]cn1)NC(=O)[C@H](CCC(N)=O)NC(=O)[C@H](C)NC(=O)[C@H](CCC(=O)O)NC(=O)[C@H](CCC(=O)O)NC(=O)[C@H](CCC(=O)O)NC(=O)[C@H](CC(C)C)NC(=O)[C@H](CCC(N)=O)NC(=O)[C@H](CCCCN)NC(=O)[C@H](CO)NC(=O)[C@H](CC(C)C)NC(=O)[C@H](CC(=O)O)NC(=O)[C@H](CO)NC(=O)[C@@H](NC(=O)[C@H](Cc1ccccc1)NC(=O)[C@@H](NC(=O)CNC(=O)[C@H](CCC(=O)O)NC(=O)CNC(=O)[C@H](Cc1c[nH]cn1)NC(=O)CN)[C@@H](C)O)[C@@H](C)O)C(=O)N[C@@H](CCC(=O)O)C(=O)N[C@@H](Cc1c[nH]c2ccccc12)C(=O)N[C@@H](CC(C)C)C(=O)N[C@@H](CCCCN)C(=O)N[C@@H](C)C(=O)NCC(=O)NCC(=O)N1CCC[C@H]1C(=O)N[C@@H](CO)C(=O)N[C@@H](CO)C(=O)NCC(=O)N[C@@H](CCCCN)C(=O)N1CCC[C@H]1C(=O)N1CCC[C@H]1C(=O)N1CCC[C@H]1C(=O)N[C@@H](CCCCN)C(N)=O [Ab P037] (H-GHGEGTFTSDLSKQLEEEAQHLFIEWLKAGGPSSGKPPPK-NH2; N-terminus assumed)			
